Experimental data reported in US5047534A (Merrell Dow Pharmaceuticals Inc., priority 1990, dated 1991).
Read-outs that look alike come from different tables or passages of the source.

Key:
[1] = biological target: T1, Adenosine A-1 receptor (Rattus norvegicus, UniProt P25099); assay: Test for affinity for brain adenosine A-1 receptor binding sites ([3H]cyclohexyladenosine displacement, whole brain membranes); details: ratio of A2 Ki to A1 Ki
T1 sequence (P25099 1-326): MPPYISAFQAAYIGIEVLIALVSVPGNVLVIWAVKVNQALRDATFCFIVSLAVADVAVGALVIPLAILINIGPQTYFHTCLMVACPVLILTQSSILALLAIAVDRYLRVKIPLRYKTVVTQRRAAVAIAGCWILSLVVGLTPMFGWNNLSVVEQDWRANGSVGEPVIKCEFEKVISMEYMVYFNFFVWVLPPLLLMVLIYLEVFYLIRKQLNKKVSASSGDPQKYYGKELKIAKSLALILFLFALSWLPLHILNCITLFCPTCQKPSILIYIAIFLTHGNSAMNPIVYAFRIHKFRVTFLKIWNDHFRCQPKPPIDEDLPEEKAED

[2] = biological target: T2, adenosine A-2 receptors (Rattus norvegicus, UniProt P30543); assay: Test for affinity for brain adenosine A-2 receptors ([3H]NECA displacement, striatal membranes); assay type: binding; details: read-out: A2 Ki
T2 construct: tissue Charles River (animals); host or cells: brain striatum membranes, young male rats (C-D strain)
Description: Membranes for ligand binding are isolated from rat brain striatum. The tissue is homogenized in 20 vol icecold 50 mM Tris-HCl buffer (pH 7.7) using a polytron (setting for 6 to 20 seconds). The homogenate is centrifuged at 50,000 x g for 10 minutes at 4° C. The pellet is again homogenized in a polytron in 20 vol of buffer, and centrifuged as before. The pellet is finally resuspended in 40 vol of 50mM Tris-HCl (pH 7.7) per gram of original wet weight of tissue.
Incubations are carried out at 25° C. for 60 minutes. Each tube is filtered through GF/B glass fiber filters using a vacuum. The filters are rinsed two times with 5 ml of the ice-cold buffer. […] The filters are counted by liquid scintillation spectrometry.
Specific binding of [3H]NECA is measured as the excess over blanks run in the presence of 100 μM 2-chloroadenosine. Total membrane-bound radioactivity is about 2.5% of that added to the test tubes. […] Specific binding to membranes is about 50% of the total bound.

[3] = biological target: T1, Adenosine A-1 receptor
[4] = biological target: T1, Adenosine A-1 receptor; assay: biochemical
[5] = biological target: A-1 receptors; details: read-out: Ki at the A-1 receptors in brain membranes; cited from earlier work

T2 sequence (P30543 whole entry): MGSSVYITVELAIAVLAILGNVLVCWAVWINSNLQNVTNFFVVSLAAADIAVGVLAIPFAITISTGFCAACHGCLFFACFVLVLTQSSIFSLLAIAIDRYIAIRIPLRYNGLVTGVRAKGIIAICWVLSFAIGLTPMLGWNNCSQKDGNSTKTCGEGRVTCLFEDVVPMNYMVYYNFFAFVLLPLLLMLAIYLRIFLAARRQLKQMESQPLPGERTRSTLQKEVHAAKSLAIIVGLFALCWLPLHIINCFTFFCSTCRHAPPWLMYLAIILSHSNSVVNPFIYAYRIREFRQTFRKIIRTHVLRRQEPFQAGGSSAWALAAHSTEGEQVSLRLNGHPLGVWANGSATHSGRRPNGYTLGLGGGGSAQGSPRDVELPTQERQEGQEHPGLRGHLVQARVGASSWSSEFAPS

Molecule | A2/A1 [1] | Ki [2] | other results
3,7-Dihydro-8-(1-phenylethyl-2-phenylethyl)-1,3-dipropyl-1H-purine-2,6-dione | 37 | 2600 nM | Ki [3]: 71 nM
CCCC(Cc1ccccc1)c1nc2c(=O)n(CCC)c(=O)n(CCC)c2[nH]1 (racemic) [3,7-Dihydro-8-[1-(phenylmethyl)butyl]-1,3-dipropyl-1H-purine-2,6-dione] | – | 608 nM | –
CCCn1c(=O)c2[nH]c(C(C)Cc3ccccc3)nc2n(CCC)c1=O (racemic) [3,7-Dihydro-8-[(±)-1-methyl-2-phenylethyl]-1,3-dipropyl-1H-purine-2,6-dione] | – | 644 nM | –
CCCn1c(=O)c2[nH]c([C@@H](CC)c3ccccc3)nc2n(CCC)c1=O [3,7-Dihydro-8-[(S)-phenylpropyl]-1,3-dipropyl-1H-purine-2,6-dione] | 30 | 1560 nM | Ki [4]: 52 nM
C=CCn1c(=O)c2[nH]c(C(C)c3ccccc3)nc2n(CC=C)c1=O (stereo not drawn) [3,7-dihydro-8-(1-phenylethyl)-1,3-di-2-propenyl-1H-purine-2,6-dione] | 119 | 2400 nM | Ki [4]: 20 nM
CCCn1c(=O)c2nc(C(C)c3ccccc3)[nH]c2n(CCC)c1=O (stereo not drawn) [3,7-dihydro-8-(1-phenylethyl)-1,3-dipropyl-1H-purine-2,6-dione] | – | 1600 nM | –
CCCn1c(=O)c2[nH]c(-c3ccc(OCC(=O)NCCN)cc3)nc2n(CCC)c1=O [XAC] | – | – | Ki [5]: 1.2 ± 0.5 nM

Continued, in another order:

A2/A1 [1] | Ki [2] | Molecule | other results
216 | 1100 nM | CCCn1c(=O)c2[nH]c(C(CC)c3ccccc3)nc2n(CCC)c1=O (racemic) [3,7-dihydro-8-[(±)-phenylpropyl]-1,3-dipropyl-1H-purine-2,6-dione] | Ki [4]: 5.1 nM
– | 7100 nM | CCCn1c(=O)c2[nH]c(C3Cc4ccccc4C3)nc2n(CCC)c1=O [3,7-dihydro-8-(2-indanyl)-1,3-dipropyl-1H-purine-2,6-dione] | –
– | 3900 nM | CCCn1c(=O)c2nc(C(CO)Cc3ccccc3)[nH]c2n(CCC)c1=O (stereo not drawn) [3,7-dihydro-8-[1-(hydroxymethyl)-2-phenylethyl]-1,3-dipropyl-1H-purine-2,6-dione] | –
– | 71700 nM | CCCn1c(=O)c2nc(C(CC)Cc3ccccc3)[nH]c2n(CCC)c1=O (stereo not drawn) [3,7-dihydro-8-[1-(phenylmethyl)propyl]-1,3-dipropyl-1H-purine-2,6-dione] | –
– | 157 nM | CCCn1c(=O)c2[nH]c([C@H](C)Cc3ccccc3)nc2n(CCC)c1=O [3,7-dihydro-8-[(1R)-1-methyl-2-phenylethyl]-1,3-dipropyl-1H-purine-2,6-dione] | –
– | 848 nM | CCCn1c(=O)c2nc([C@@H](C)Cc3ccccc3)[nH]c2n(CCC)c1=O [3,7-dihydro-8-[(1S)-1-methyl-2-phenylethyl]-1,3-dipropyl-1H-purine-2,6-dione] | –
404 | 647 nM | CCCn1c(=O)c2[nH]c([C@H](CC)c3ccccc3)nc2n(CCC)c1=O [3,7-dihydro-8-[(R)-phenylpropyl]-1,3-dipropyl-1H-purine-2,6-dione] | Ki [4]: 1.6 nM
